In BindingDB's records for doi:10.1021/jm070487n (Universita Degli Studi Di Bari, 2007) one finds Ki data, which are given here for eleven compounds.

For orientation: Ki means a dissociation constant, usually derived from enzyme kinetics or from competition with a known ligand. Read a low Ki as higher affinity.

5-hydroxytryptamine receptor 2A, sequence (P14842 whole entry): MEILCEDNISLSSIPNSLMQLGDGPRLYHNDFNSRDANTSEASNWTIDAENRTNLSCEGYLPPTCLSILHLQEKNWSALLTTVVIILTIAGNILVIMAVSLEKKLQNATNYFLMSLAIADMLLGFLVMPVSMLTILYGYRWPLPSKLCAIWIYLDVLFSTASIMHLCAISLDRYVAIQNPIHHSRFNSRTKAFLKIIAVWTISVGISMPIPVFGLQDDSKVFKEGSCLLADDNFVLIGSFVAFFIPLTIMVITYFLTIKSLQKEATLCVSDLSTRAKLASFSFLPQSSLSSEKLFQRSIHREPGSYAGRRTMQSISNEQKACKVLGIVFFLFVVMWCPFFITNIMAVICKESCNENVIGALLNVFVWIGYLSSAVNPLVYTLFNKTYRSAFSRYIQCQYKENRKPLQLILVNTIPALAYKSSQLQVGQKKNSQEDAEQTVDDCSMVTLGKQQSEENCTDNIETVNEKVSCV

The target in the first assay is T1, 5-hydroxytryptamine receptor 1A (Homo sapiens, UniProt P08908).
T1 sequence (P08908 whole entry): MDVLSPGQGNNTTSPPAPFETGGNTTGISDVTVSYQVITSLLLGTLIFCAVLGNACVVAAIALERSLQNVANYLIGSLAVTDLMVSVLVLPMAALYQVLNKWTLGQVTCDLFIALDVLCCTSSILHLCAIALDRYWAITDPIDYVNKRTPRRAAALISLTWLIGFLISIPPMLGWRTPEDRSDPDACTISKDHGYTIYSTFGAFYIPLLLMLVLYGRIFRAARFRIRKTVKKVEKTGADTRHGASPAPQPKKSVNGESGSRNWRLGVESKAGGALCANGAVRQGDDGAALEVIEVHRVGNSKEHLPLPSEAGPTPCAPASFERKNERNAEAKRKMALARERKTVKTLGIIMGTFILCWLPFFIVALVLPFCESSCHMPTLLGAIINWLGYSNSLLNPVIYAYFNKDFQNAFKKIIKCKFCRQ
The assay is described as follows: Radioligand Labeled Binding Assay. The procedure:
(§1) IC50 values for each test compound were determined from nonlinear regression analysis of data collected from ligand binding experiments. The inhibition constant (Ki) was calculated from IC50 value by the Cheng and Prusoff equation.
For the compound `CSc1ccccc1N1CCN(CCCCCC(=O)NC2CCCc3ccccc32)CC1` (configuration not stated), affinity was put at a Ki of 0.0527 µM.

Compound `COc1ccccc1N1CCN(CCCCCC(=O)NC2CCCc3ccccc32)CC1` (configuration not stated) displayed an inhibition constant (Ki) of 0.0086 µM. `Cc1ccccc1N1CCN(CCCCCC(=O)NC2CCCc3ccccc32)CC1` (configuration not stated) returned an inhibition constant (Ki) of 0.279 µM.

With `CC(=O)c1ccccc1N1CCN(CCCCCC(=O)NC2CCCc3ccccc32)CC1` (configuration not stated), the inhibition constant Ki worked out at 0.00385 µM.

Compound `O=C(CCCCCN1CCN(c2ccccc2O)CC1)NC1CCCc2ccccc21` (configuration not stated) registered a Ki of 0.024 µM. `O=C(CCCCCN1CCN(c2ccccc2)CC1)NC1CCCc2ccccc21` (configuration not stated) came in with a Ki of 0.128 µM. In turn, `O=C(CCCCCN1CCN(c2ccccc2Cl)CC1)NC1CCCc2ccccc21` (configuration not stated) returned an inhibition constant Ki of 0.096 µM. On the same count and under the same terms, with `CS(=O)(=O)c1ccccc1N1CCN(CCCCCC(=O)NC2CCCc3ccccc32)CC1` (configuration not stated) the figure was 3.12 µM; with `NC(=O)c1ccccc1N1CCN(CCCCCC(=O)NC2CCCc3ccccc32)CC1` (configuration not stated) [2-{4-[5-(1,2,3,4-tetrahydronaphthalen-1-ylcarbamoyl)pentyl]piperazin-1-yl}benzamide], 0.494 µM. On the same count and under the same terms, the result for `N#Cc1ccccc1N1CCN(CCCCCC(=O)NC2CCCc3ccccc32)CC1` (configuration not stated) [6-[4-(2-cyanophenyl)piperazin-1-yl]-N-(1,2,3,4-tetrahydronaphthalen-1-yl)hexanamide] reads 0.0166 µM; that for `O=C(CCCCCN1CCN(c2ccccc2[N+](=O)[O-])CC1)NC1CCCc2ccccc21` (configuration not stated) [6-[4-(2-nitrophenyl)piperazin-1-yl]-N-(1,2,3,4-tetrahydronaphthalen-1-yl)hexanamide], 0.183 µM.

The next assay has as its target 5-hydroxytryptamine receptor 2A (Rattus norvegicus, UniProt P14842). The assay is described as follows: Radioligand Labeled Binding Assay. How it is done: as §1
In the case of `COc1ccccc1N1CCN(CCCCCC(=O)NC2CCCc3ccccc32)CC1` (configuration not stated), affinity was put at a Ki of 1.26 µM.
